Data on seven molecules can be found in patent publication US20140328940A1, “MODULATION OF AXON DEGENERATION” (Genentech, Inc., priority 2009, published 2014).

Entries after “also recorded” stand apart in the source; their conditions may differ.

Series [1] concerns the target ErbB kinase. The conditions noted are these: read-out: Cellular IC50; heregulin induced tyrosine phosphorylation, MDA-MB-453 cells; published source; cited from earlier work.
Series [2] has as its system cerebellar granule neurons (CGNs). As to the kind of experiment: serum deprivation/KCl reduction degeneration of cerebellar granule neurons. The conditions noted are these: 5 mM KCl, 24 hours. The series is classed as cell-based, mouse.
Series [3] concerns DRG neurons (axon vs. cell body compartment). Description: Campenot chamber local axon degeneration (anti-NGF in axon compartment). The series is classed as cell-based, mouse. The procedure:
Teflon dividers (Tyler Research) were cleaned by washing in water and wiping them clean of any residual grease. Dividers were then soaked in Nochromix (Godax Laboratories)/sulfuric acid overnight, rinsed five times in distilled and autoclaved water (SQ water), boiled for 30 minutes, and then air-dried before use
Mouse laminin (5 μg/ml in sterile filtered water; Invitrogen) was added to PDL coated 35 mm dishes (BD Biosciences) and they were incubated for 1 hour at 37° C., followed by two rinses in SQ water. The dishes were vacuum-dried and then air-dried in a laminar flow hood for 15 minutes. Prepared dishes were then scored with a pin rake (Tyler Research). […] High vacuum grease (VWR) was added to each Teflon divider under a dissection scope. The laminin coated PDL dishes were inverted and dropped onto the Teflon divider, with additional pressure added by use of a toothpick in the non-track-containing regions. Dishes were incubated for 1 hour at 37° C. Five hundred microliters of NBM+MC (50 ng/ml NGF) solution was added to each of the side compartments, and a grease barrier was added in front of the center cell slot.
Free E13.5 spinal cords were dissected from mouse embryos and placed into NBM+MC (25 ng/ml NGF) solution. DRGs were detached from the spinal cord with a tungsten needle. An NBM+MC-lubricated P200 pipette was used to move DRGs into a 1.5 ml tube. DRGs were pelleted with a tabletop centrifuge for 30 seconds. The supernate was discarded and 0.05% Trypsin/EDTA (cold) was added. The pellet was resolubilized with a pipette and incubated at 37° C. for 15 minutes with constant agitation (650 RPM). The sample was again centrifuged and the supernate discarded. The pellet was resuspended in warm NBM+MC (50 ng/ml NGF) solution and triturated with a flamed glass pipette 20 times, followed by trituration with a fire-bored glass pipette another 20 times. The samples were again centrifuged and the resulting pellets were resuspended in 0.5 ml NBM+MC (50 ng/ml NGF) solution. The cells were diluted to a final concentration of 2.5×10^6 cells/ml. The cell suspensions were loaded into a 1 ml syringe with a 22 gauge needle. The center slot of the Campenot divider was filled using the syringe (to a volume of at least 50 μl). The Campenot chamber was incubated overnight at 37° C. 2.5 ml NGF+MC (50 ng/ml NGF) solution was added to the center compartment and the grease gate was removed. The outer medium (cell body compartment) was replaced after three days with 2.5 ml NBM+MC medium (with 25 ng/ml NGF). After five days in culture, one distal compartment was washed three times with warmed NBM+MC (no NGF) solution. After the third wash, 500 μl NBM+MC (no NGF) solution was added to the axon compartment in combination with either 0.5% DMSO or an inhibitor. The cell body compartment was replaced with 2.5 ml NBM+MC medium (with 25 ng/ml NGF) containing either 0.5% DMSO or inhibitor.
After 28 hours of anti-NGF antibody treatment, 8% PFA/30% sucrose solution (see above) was added directly to the culture medium at a 1:1 dilution and incubated for 30 minutes. The Teflon divider was removed after the first 15 minutes of addition. The system was washed once with 2.5 ml PBS prior to immunostaining. Neurons were blocked in 5% BSA/0.2% triton in PBS for 30 minutes. The primary antibody Tuj1 (Covance) was added to a final dilution of 1:1000 in PBS containing 2% BSA and incubated overnight at 4° C. The dish was washed once with PBS. […] The dish was washed twice with PBS, and a 22×22 mm coverslip (VWR) was added with 350 μl of fluoromount G (Electron Microscopy Sciences). The neurons were visualized by use of a fluorescence microscope.
As described above, E13.5 DRGs were isolated and grown for 5 days in a Campenot chamber.

In another series the test system is DRGs. As to the kind of experiment: G-protein/GPCR inhibitors in NGF withdrawal-induced degeneration in DRGs. The series is classed as cell-based, mouse. The procedure:
The assays described herein identified several inhibitors of G-proteins and G-protein coupled receptors (GPCRs) that decrease degeneration in neurons. Experiments were performed in DRGs to verify the role of G-proteins and GPCRs in degeneration pathways. The experimental protocols used in these experiments are the same as those described in Example 14. Pertussis toxin and SCH 202676 were purchased from Tocris Bioscience.

A short description of series [4]: toxin-induced degeneration of sympathetic neurons (MTT assay). The series is classed as cell-based. The conditions noted are these: Sprague-Dawley, rat, primary sympathetic neurons from cervical ganglia, 24 hour camptothecin, read-out: % viability (normalized). The procedure: Sympathetic cervical ganglia were dissected from postnatal day 1 Sprague-Dawley rats (Charles River Labs) and collected in a dish containing Ultraculture media (Lonza) with 5% fetal bovine serum (Invitrogen). Ganglia were washed twice with serum-free Ultraculture media, and a final concentration of 0.1% trypsin (Worthington) was added and incubated with the tissue at 37° C. for 30 minutes. One percent DNase (Roche) solution in PBS was added to the ganglia and incubated at room temperature for 1-2 minutes. Ganglia were washed with Ultraculture and allowed to settle to the bottom of the tube. All wash media were removed and 1 mL plating media containing Ultraculture, 5% rat serum, 1% penicillin-streptomycin, 1% glutamax, 7 μM cytosine arabinoside (Sigma), and 50 ng/mL nerve growth factor (2.5S, Cedarlane Laboratory) was added to the tube. Ganglia were dissociated by trituration using a pipet (Rainin). The cell slurry was filtered over a […] cell strainer (Falcon) and cell number was counted. Sympathetic neurons were plated at a density of 5000-7500 cells/well (96-well dish), 200,000 cells/well (6-well plate), or 100,000 cells/well (8-well chamber slide) and grown for 4-5 days in 5% CO2 at 37° C. Every other day neurons were fed with fresh plating media containing 5-10 ng/mL NGF.
NGF withdrawal assays were performed as described in Example 14A. […]
(Tetrazolium assays rely on reduction of a dye to a coloured formazan, in cell work by metabolically active cells.)

Series [5] has as its system dorsal root ganglion neurons. Description: EGF addition to DRG neurons maintained in NGF: degeneration. The series is classed as cell-based, mouse. Conditions: 100 μg/mL EGF. The procedure: Experiments were carried out to assess the effects of activation of EGFR by ligands, including EGF.
(§1) Dorsal Root Ganglia (DRG) immunoblots were prepared as follows. Primary cells used in the experiments were Charles River CD-1 E13 Dorsal Root Ganglia (DRG). The cells were maintained in N3/F12 (+25 ng/ml NGF) medium (Ham's F12 (23 ml), N3 supplement (1 ml), glucose (1 ml of 1 M glucose stock), 25 ng/ml Nerve Growth Factor 2.5 S, mouse (Roche 11362348001) in Ham's F12 (stock: 50 μg/ml-80° C.), which was filter-sterilized prior to use). The experiments also employed Triton lysis buffer (20 mM Tris pH 7.5, 150 mM NaCl, 0.1% Triton-X100, 100× Phosphatase inhibitor cocktail I (added fresh), 100× Phosphatase inhibitor cocktail II (added fresh), 1 tablet/10 ml Protease inhibitor tablet (added fresh)).
DRG explants were prepared on Day 0. Embryo dissections were carried out in L15 medium (dissection tools were soaked in 70% isopropanol, and dishes were set up on ice: 10 cm dishes (4 embryos per dish) and one 6 cm dish for spinal cords). E13.5 spinal cords were extracted into DMEM+10% FBS. […]
(§2) The goal of these experiments was to see if activation of EGFR by EGF would be sufficient to drive degeneration. […] To ensure that EGF is capable of activating EGFR/ErbBs in the neuronal cultures used in these assays, ERK activation was assessed (ERK is a downstream target of EGFR).

Another series has as its system ERK. Description: ERK activation by EGF in DRG cultures (Western blot). The series is classed as cell-based, mouse. Conditions: 100 μg/mL EGF; 30 minutes to 1 hour. How it is done: as §1
DRG explants were prepared on Day 0. […]
Immunoblotting was carried out by aspiration of media with a pipette tip, washing twice with ice-cold sterile PBS, and removal of all PBS using an aspirator with a pipette tip or kimwipes. […] Quantification was carried out by choosing a background method and standard bands that minimize negative/counter-intuitive values: i.e., top/bottom, right/left, user-defined (user-defined). […]
as §2

Series [6] is described as follows: peripheral neuropathy in patients treated with paclitaxel (adverse event analysis). The series is classed as in vivo, human. The conditions noted are these: combination with paclitaxel; first 400 patients enrolled; placebo+paclitaxel 26.4%; p=0.012 Fisher's exact. The source says: Tarceva® (erlotinib) is an EGFR kinase inhibitor. Treatment of patients with paclitaxel and other chemotherapeutic agents is known to lead to peripheral neuropathy (reviewed in Wilkes, Semin. Oncol. Nurs. 23(3):162-173, 2007).

Series [7] relates to dorsal spinal cord explants. As to the kind of experiment: dorsal spinal cord (DSC) explant degeneration. The series is classed as cell-based. Conditions: 3.4 μM, 11.1 μM, 33.3 μM, and 100 μM.
Excerpt: DSCs grow out axons over a period of days, but if they are not rescued with the addition of a survival factor, they will eventually degenerate.
Series [8] concerns the target ErbB kinase (Homo sapiens, UniProt P04626). Conditions: protein tyrosine phosphorylation, 3T3-Her2 cells; published source; read-out: Cellular IC50; cited from earlier work.

Chain of ErbB kinase (Homo sapiens, UniProt P04626) (P04626 23-1255): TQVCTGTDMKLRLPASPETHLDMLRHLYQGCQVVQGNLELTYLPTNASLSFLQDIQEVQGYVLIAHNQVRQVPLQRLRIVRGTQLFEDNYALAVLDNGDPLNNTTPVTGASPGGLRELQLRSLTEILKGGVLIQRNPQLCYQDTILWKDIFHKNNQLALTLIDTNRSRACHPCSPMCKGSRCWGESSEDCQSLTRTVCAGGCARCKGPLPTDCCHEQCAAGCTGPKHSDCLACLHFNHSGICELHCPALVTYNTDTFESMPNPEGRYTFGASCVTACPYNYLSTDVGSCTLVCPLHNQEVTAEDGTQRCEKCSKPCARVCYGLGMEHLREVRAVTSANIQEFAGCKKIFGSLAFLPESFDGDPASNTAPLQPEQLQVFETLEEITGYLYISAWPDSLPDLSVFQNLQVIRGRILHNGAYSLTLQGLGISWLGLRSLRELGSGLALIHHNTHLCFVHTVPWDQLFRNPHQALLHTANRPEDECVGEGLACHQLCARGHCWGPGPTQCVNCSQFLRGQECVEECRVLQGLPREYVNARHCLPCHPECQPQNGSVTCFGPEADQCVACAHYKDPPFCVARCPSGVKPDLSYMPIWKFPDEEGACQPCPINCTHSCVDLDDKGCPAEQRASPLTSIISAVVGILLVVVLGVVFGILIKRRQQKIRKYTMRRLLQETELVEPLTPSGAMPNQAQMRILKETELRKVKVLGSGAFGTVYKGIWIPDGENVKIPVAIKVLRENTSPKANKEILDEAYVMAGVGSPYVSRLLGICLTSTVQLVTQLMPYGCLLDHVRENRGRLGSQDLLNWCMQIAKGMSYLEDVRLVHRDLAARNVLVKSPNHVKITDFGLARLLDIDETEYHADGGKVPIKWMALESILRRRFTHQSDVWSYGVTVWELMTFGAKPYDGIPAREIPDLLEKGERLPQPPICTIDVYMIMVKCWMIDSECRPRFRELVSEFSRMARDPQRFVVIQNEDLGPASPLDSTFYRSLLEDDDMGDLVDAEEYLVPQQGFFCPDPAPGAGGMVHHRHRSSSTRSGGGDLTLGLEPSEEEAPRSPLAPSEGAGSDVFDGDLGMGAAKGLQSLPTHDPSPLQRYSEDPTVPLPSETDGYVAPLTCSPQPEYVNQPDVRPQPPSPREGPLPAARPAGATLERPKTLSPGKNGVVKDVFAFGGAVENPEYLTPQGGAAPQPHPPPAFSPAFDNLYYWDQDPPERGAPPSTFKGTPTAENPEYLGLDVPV

With `N#C/C(=C\c1ccc(O)c(O)c1)C(=O)NCCCc1ccccc1` [AG555], the IC50 on ErbB kinase [1] was 5 nM. For the same molecule, the “protection of cerebellar granule neurons from serum deprivation/KCl reduction” value in [2] (1 μM) and in series [2] (10 μM) was “protect” in each case. For the same molecule, the “formation of varicosities in locally NGF-deprived axons” value in [3] (30 μM SB415, 15 μM Act D in cell body compartment, 10 μM AG555, 30 μM SB239 in axon compartment) is “fewer varicosities”. Also, in series [3] (inhibitor 10 μM in axon compartment), the “Axon Compartment (protection of NGF-deprived axons)” value is given as “did not degenerate; also recorded: protected from local degeneration; also recorded: Yes (4)”. For the same molecule, in [3] (inhibitor 10 μM in cell body compartment), the “Cell Body Compartment (protection of NGF-deprived axons)” value is reported as “failed to prevent degeneration; also recorded: No (4)”.
On to Pertussis toxin, for which the “degeneration in neurons following NGF withdrawal” value in the series on DRGs (0.01 μg/mL, 0.1 μg/mL, or 1 μg/mL (FIG. 51)) is on record as “decreases”.
On to `CC[C@@]1(O)C(=O)OCc2c1cc1n(c2=O)Cc2cc3ccccc3nc2-1` [camptothecin], for which, in series [4], the viability at 24 h was determined as 79%.
For the molecule EGF: ErbB1 ligand added to DRG neurons, the “induction of axon degeneration” value in [5] is listed as “does not cause degeneration”. In the series with ERK, the “ERK activity (phosphorylation of ERK, Western blot)” value is “increased”.
For `C#Cc1cccc(Nc2ncnc3cc(OCCOC)c(OCCOC)cc23)c1` [Tarceva, N-(3-ethynylphenyl)-6,7-bis(2-methoxyethoxy)quinazolin-4-amine], the “patients with peripheral neuropathy” value in series [6] was 16.3 % of patients. Also, the “degeneration in dorsal spinal cord explants” value in series [7] is recorded as “can delay; also recorded: blocks”.
Regarding `C=CC(=O)Nc1ccc2ncnc(Nc3cccc(Br)c3)c2c1` [PD168393], the IC50 on ErbB kinase [8] was 100 nM. In addition, in series [3] (inhibitor 5 μM in axon compartment), the “Axon Compartment (protection of NGF-deprived axons)” value is “Yes (1)”. Also, in series [3] (inhibitor 5 μM in cell body compartment), the “Cell Body Compartment (protection of NGF-deprived axons)” value is reported as “No (1)”.
With `CN=c1nc(-c2ccccc2)n(-c2ccccc2)s1` [SCH 202676], the “NGF withdrawal-induced degeneration in DRGs” value with DRGs (0.1 μM, 1 μM, 10 μM or 100 μM (FIGS. 49 and 50)) is on record as “decreases”.

The term IC50 denotes the point on the concentration scale where inhibition reaches its midpoint. The term viability denotes a per cent measure of how many cells are alive, often set against a control.
